From ChEMBL document CHEMBL1201862, “PubChem BioAssay data set” (2004) come the findings set out here.

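Step 1: Grow cells in 96-well plates. Step 2: Expose to compound for 48 hours at 5 concentrations. Step 3: Interpolate endpoints linearly; if unreached, use highest concentration. Abbreviation: GI50, concentration required for 50% inhibition of growth.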 Active and inactive are the calls of the source. Cut-off read from the data, not from the text of the source: active = GI50 up to about 1.1 µM and inactive = higher. Where only a bound is given, the exact number is not on record here.

Test systems include KM12; HL-60; SN12C; UACC-62; SF-539; MOLT-4; COLO 205; DLD-1; M19-MEL; CCRF-CEM; MCF7; IGROV-1; 786-0; MDA-MB-231; Hs-578T; T47D; MDA-N; MDA-MB-435; PC-3; BT-549.
Common to all, as to test: NCI anticancer screen, dose series, 48 h

As for `C=C1CC(OC)(C(OC)C(=O)N[C@H]2OCO[C@H]3C2O[C@H](C[C@@H](COC)OC)C(C)(C)C3OC)O[C@H](C)[C@@H]1C` (some centres not stated), the GI50 in the assay with KM12 was 0.603 µM (active); in the assay on HL-60, 0.412 µM (active); in the assay with SN12C it was 0.746 µM (active); in the assay on UACC-62, 1.01 µM (active); in the assay on SF-539, 0.76 µM (active); in the assay with MOLT-4, 0.522 µM (active). Besides, the GI50 is 0.805 µM (active) with COLO 205; 0.805 µM (active) with DLD-1; 0.778 µM (active) with M19-MEL; 0.21 µM (active) with CCRF-CEM; 1.4 µM (inactive) with MCF7; 1.17 µM (inactive) with IGROV-1.

For the compound `O=C1C2c3[nH]c4ccccc4c3C3CCSCC3C2C(=O)N1c1ccccc1` (configuration not stated), the GI50 was > 100 µM (inactive) in the assay with KM12; > 100 µM (inactive) in the assay with HL-60; > 100 µM (inactive) in the assay with 786-0; > 100 µM (inactive) in the assay with SN12C; > 100 µM (inactive) with UACC-62; 59.2 µM (inactive) with SF-539. For the same compound, the GI50 in the assay on MOLT-4 is 87.3 µM (inactive); with COLO 205, > 100 µM (inactive); in the assay on DLD-1 it was > 100 µM (inactive); in the assay with M19-MEL, > 100 µM (inactive); in the assay with CCRF-CEM, > 100 µM (inactive); with IGROV-1 it was > 100 µM (inactive).

Take `CC(=O)O[C@H]1CC[C@@]2(C)[C@H](CC[C@@H]3[C@@H]2CC[C@]2(C)[C@@H](c4ccc(=O)oc4)C[C@H]4O[C@]342)C1`: the GI50 in the assay with KM12 is 2.36 µM (inactive); with HL-60, 0.307 µM (active); in the assay with SN12C, 0.327 µM (active); with UACC-62, 1.05 µM (active); in the assay on SF-539 it was 0.348 µM (active); in the assay with MOLT-4, 0.237 µM (active). In addition, the GI50 in the assay on COLO 205 is 3.15 µM (inactive); with DLD-1 it was 0.354 µM (active); in the assay on M19-MEL, 1.05 µM (active); with CCRF-CEM, 0.392 µM (active); in the assay on MCF7 it was 1.27 µM (inactive); in the assay with IGROV-1, 1.08 µM (active).

In the case of `O=S(O)CCCSSSCCCS(=O)O`, the GI50 in the assay with KM12, with HL-60, with SN12C, in the assay on UACC-62, in the assay on SF-539 and with MOLT-4 was > 100 µM (inactive) throughout. Moreover, the GI50 with DLD-1, in the assay on M19-MEL and in the assay with CCRF-CEM was > 100 µM (inactive) in each case.

As to `C=C(/C=C/C=C(/CCC=C(C)C)COC(C)=O)[C@@H]1CC[C@]2([C@H](CCCO)/C(=C(/C)C=O)CC[C@]2(C)O)[C@@H]1O`, the GI50 was 16.2 µM (inactive) in the assay with KM12; 0.912 µM (active) in the assay with HL-60; 15.8 µM (inactive) with SN12C; 14 µM (inactive) in the assay on SF-539; 9.29 µM (inactive) in the assay with MOLT-4; 0.558 µM (active) in the assay with COLO 205. For the same compound, the GI50 in the assay with DLD-1 is 11.9 µM (inactive); in the assay with M19-MEL, 15.7 µM (inactive); in the assay on CCRF-CEM it was 1.86 µM (inactive); in the assay on IGROV-1, 17.2 µM (inactive).

On to `CC(=O)NC1=C(C)C(=O)c2c(nc3n2CCC3OC(=O)c2ccccc2)C1=O` (configuration not stated), for which the GI50 in the assay with KM12 is 2.61 µM (inactive); in the assay on HL-60 it was 1.92 µM (inactive); with 786-0 it was 4.3 µM (inactive); in the assay with SN12C, 1.79 µM (inactive); with UACC-62 it was 1.92 µM (inactive); in the assay on SF-539, 1.93 µM (inactive). Further, the GI50 is 1.99 µM (inactive) with MOLT-4; 4 µM (inactive) in the assay on COLO 205; 1.81 µM (inactive) in the assay with DLD-1; 1.69 µM (inactive) with M19-MEL; 1.19 µM (inactive) in the assay with CCRF-CEM; 2.08 µM (inactive) in the assay on IGROV-1.

As to `CC(C)NC(=O)OCc1nnn2c1CCC2`, the GI50 in the assay on KM12, in the assay on HL-60, with SN12C, with UACC-62, in the assay with SF-539 and in the assay with MOLT-4 was > 100 µM (inactive) each time. Moreover, the GI50 in the assay on DLD-1, with M19-MEL, with CCRF-CEM and with IGROV-1 was > 100 µM (inactive) in each case.

Turning to `Cc1nc2ccccc2c(=O)n1CC(=O)O`, the GI50 in the assay on KM12, in the assay with HL-60, in the assay on SN12C, with UACC-62, in the assay with SF-539 and in the assay with MOLT-4 was > 100 µM (inactive) each time. Further, the GI50 with COLO 205, in the assay with DLD-1, in the assay on M19-MEL, in the assay on CCRF-CEM, in the assay with MCF7 and in the assay on IGROV-1 was > 100 µM (inactive) throughout.

Turning to `O=C1CCCCCCCCCCOC(=O)CCCCCCCCCCO1`, the GI50 in the assay on KM12 was > 100 µM (inactive); with HL-60, 21.8 µM (inactive); with 786-0, > 100 µM (inactive); in the assay on SN12C it was > 100 µM (inactive); with UACC-62, > 100 µM (inactive); in the assay on SF-539, > 100 µM (inactive). For the same compound, the GI50 in the assay with COLO 205, with DLD-1, in the assay on M19-MEL, in the assay on CCRF-CEM and with IGROV-1 was > 100 µM (inactive) each time.

Turning to `O=C(c1ccccc1)c1cc(Cl)ccc1NCn1nnc2ccccc21`, the GI50 in the assay with KM12 was 33.2 µM (inactive); in the assay on HL-60 it was 25.2 µM (inactive); in the assay with 786-0, > 100 µM (inactive); with SN12C, 76.4 µM (inactive); in the assay on UACC-62, > 100 µM (inactive); in the assay on SF-539, 37.8 µM (inactive). The GI50 in the assay with MOLT-4 is 42.1 µM (inactive); in the assay on COLO 205 it was 64.6 µM (inactive); in the assay on DLD-1, > 100 µM (inactive); in the assay on M19-MEL it was 81.7 µM (inactive); with CCRF-CEM, 77.4 µM (inactive); in the assay on IGROV-1, > 100 µM (inactive).

With `Nc1ccc2c(c1)C1=NNC(=O)CC1C2` (configuration not stated), the GI50 in the assay with KM12, with HL-60, in the assay with SN12C, in the assay on UACC-62, in the assay with SF-539 and in the assay with COLO 205 was > 100 µM (inactive) throughout. In addition, the GI50 in the assay with DLD-1 was > 100 µM (inactive); in the assay on M19-MEL it was > 100 µM (inactive); in the assay with CCRF-CEM, > 100 µM (inactive); in the assay with MCF7 it was > 31.6 µM (inactive); in the assay on IGROV-1 it was > 100 µM (inactive).

For the compound `CC12CCC3C(CCC4CC(OC(=O)Cc5ccc(N(CCCl)CCCl)cc5)CCC43C)C1CCC(=O)N2` (configuration not stated), the GI50 in the assay with KM12 was 18.2 µM (inactive); in the assay with HL-60 it was 4.84 µM (inactive); in the assay on 786-0, 15.5 µM (inactive); with SN12C, 15.6 µM (inactive); in the assay on SF-539, 15.1 µM (inactive); in the assay with MOLT-4, 7.41 µM (inactive). Also, the GI50 in the assay with COLO 205 is 17.3 µM (inactive); in the assay with DLD-1, 18.7 µM (inactive); in the assay with M19-MEL, 17.2 µM (inactive); in the assay with CCRF-CEM it was 6.25 µM (inactive); with IGROV-1, 16.2 µM (inactive).

As for `Cc1cc(S(=O)(=O)NC2=NCc3nc4ccccc4n32)c(S)cc1Cl`, the GI50 in the assay with KM12 was 21.2 µM (inactive); with HL-60 it was 24.2 µM (inactive); in the assay on MDA-MB-231 it was 23.5 µM (inactive); with 786-0, 21 µM (inactive); in the assay with SN12C it was 23.5 µM (inactive); in the assay with UACC-62, 17.1 µM (inactive). The GI50 in the assay with SF-539 was 20.7 µM (inactive); with MOLT-4, 19.6 µM (inactive); in the assay with Hs-578T, 21.4 µM (inactive); in the assay on COLO 205 it was 19.4 µM (inactive); with T47D, 21.9 µM (inactive); in the assay on MDA-N, 26 µM (inactive). Also, the GI50 with CCRF-CEM was 31.6 µM (inactive); in the assay on MDA-MB-435 it was 28.8 µM (inactive); in the assay on MCF7, 30.3 µM (inactive); with PC-3, 22.2 µM (inactive); in the assay on BT-549, 23 µM (inactive); with IGROV-1, 24.8 µM (inactive).
